From US8841413B2, “Antidiabetic compounds” (Cadila Healthcare Limited, priority 2006, dated 2014)

How the values were obtained:
[1] = tested on: RIN5F (Rat Insulinoma) cells; test: In vitro glucose-dependent insulin secretion (RIN5F cell assay); assay type: cell-based; settings: 16.7 mM glucose load, mean ± S.D., n = 3
Experimental: After trypsinization, RIN5F cells were seeded at a concentration of 0.2×10^6·cells per well, in 12 well plates.
The supernatant was collected and the insulin amount was measured by ultra sensitive Rat insulin ELISA kit (Crystal Chem, Ill.). The protein was estimated in the supernatant using Bicinchoninic Acid kit, according to the manufacturer's protocol (Sigma Aldrich, Mo.). The total insulin content obtained in Pico-gram (pg) was divided with the total protein (μg) in order to normalize for differences in cell density between wells.

human glucagon receptor = target: T1, human glucagon receptor (Homo sapiens, UniProt P47871); test: In vitro human glucagon antagonist activity (inhibition of cAMP production), CHO/human glucagon R cells; assay type: cell-based
T1 construct: The full-length cDNA was cloned in pcDNA3.1(Invitrogen); expressed in transfected cells
T1 sequence (P47871 26-477): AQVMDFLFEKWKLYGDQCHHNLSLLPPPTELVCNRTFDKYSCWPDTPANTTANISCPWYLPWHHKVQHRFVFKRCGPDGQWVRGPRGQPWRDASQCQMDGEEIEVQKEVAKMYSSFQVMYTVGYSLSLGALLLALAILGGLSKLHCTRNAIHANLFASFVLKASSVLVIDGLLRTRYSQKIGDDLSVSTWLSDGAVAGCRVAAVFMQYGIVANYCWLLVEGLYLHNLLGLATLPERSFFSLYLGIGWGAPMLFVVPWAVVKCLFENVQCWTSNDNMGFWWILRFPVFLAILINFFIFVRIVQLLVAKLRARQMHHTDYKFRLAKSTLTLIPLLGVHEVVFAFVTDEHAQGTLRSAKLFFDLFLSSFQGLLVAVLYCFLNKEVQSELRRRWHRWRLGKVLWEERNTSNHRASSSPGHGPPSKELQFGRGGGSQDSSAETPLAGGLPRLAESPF
Experimental: CHO cells were grown in Ham's F12 medium containing L-Glutamine (2 mM), HEPES (25 mM), NaHCO3 (1.1 g/L) and supplemented with newborn Calf Serum (NBCS; 10%), Penicillin (50 U/ml (v/v)) and Streptomycin (50 ug/ml (v/v)). Cells were split every 3 days 1:8.
The full-length cDNA was cloned in pcDNA3.1(Invitrogen). […] Clones expressing the receptor were generated by G418 (800 μg/ml active, Sigma) selection. The stable clones were thereafter maintained at 500 ug/ml (G418). The selected clone was used between passages 9-25 for cAMP assays.
The trypsin was inactivated using Ham's F12 medium containing 10% NBCS and the cells were suspended in 2 ml of complete medium. […] The medium was aspirated off from the 12 well plate and the cells were washed once using Ham's F12 (plain). […] After the incubation; the medium was removed and cells were washed once with plain Ham's F12. Subsequently, the cells were lysed by adding 500 ul of ice cold 0.1 N HCl to each well and shaking for 30 minutes at 200 rpm. The cells were then scrapped, the lysate was collected in micro centrifuge tubes and centrifuged at 12000 rpm for 10 min to remove the debris. 300 ul of supernatant from each micro-centrifuge tube was then removed into a glass tube and dried under N2 for 30 min, for cAMP estimation. The total cAMP was estimated from the sample according to the manufacturer's protocol using Cyclic AMP immunoassay kit (R&D systems, Minneapolis: MN). The remaining supernatant is used to determine the protein concentration using micro BCA (Sigma). Data is calculated as percent of control (Vehicle: water) and expressed as Mean+SD.

DPP IV = DPP IV (Homo sapiens, UniProt P27487); test: Stability against DPP IV enzyme; assay type: in vitro ADME; settings: for % degradation in 24 h when incubated with DPP-IV enzyme: 2 μM, 37° C.; for half-life at 2 μM: DPP IV enzyme, pH 7.8, 37° C., read-out: half-life (t1/2) with DPP-IV enzyme
Sequence of DPP IV (P27487 whole entry, species assumed): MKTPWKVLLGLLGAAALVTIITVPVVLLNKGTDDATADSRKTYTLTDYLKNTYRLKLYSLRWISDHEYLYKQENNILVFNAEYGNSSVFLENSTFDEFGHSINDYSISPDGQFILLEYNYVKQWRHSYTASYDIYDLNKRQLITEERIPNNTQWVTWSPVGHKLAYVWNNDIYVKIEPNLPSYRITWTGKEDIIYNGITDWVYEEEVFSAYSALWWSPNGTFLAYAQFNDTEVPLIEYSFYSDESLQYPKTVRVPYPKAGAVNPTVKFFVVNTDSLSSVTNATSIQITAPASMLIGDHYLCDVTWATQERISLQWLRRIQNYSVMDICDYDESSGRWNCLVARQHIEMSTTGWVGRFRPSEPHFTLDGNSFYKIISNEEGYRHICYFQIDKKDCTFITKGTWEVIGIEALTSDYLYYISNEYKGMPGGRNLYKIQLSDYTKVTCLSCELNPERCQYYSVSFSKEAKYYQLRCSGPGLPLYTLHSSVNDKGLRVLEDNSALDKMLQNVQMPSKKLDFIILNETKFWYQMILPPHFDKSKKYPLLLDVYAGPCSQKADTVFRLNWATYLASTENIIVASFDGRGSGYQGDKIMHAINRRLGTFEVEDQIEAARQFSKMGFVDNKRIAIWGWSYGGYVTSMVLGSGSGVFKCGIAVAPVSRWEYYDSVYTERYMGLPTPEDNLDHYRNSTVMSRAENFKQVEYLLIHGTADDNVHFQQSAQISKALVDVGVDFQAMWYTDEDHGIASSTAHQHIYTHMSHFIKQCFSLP
In short: (§1)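 UV detection at 206 nm tracked the remaining material after HPLC separation at a flow of 1 mL/min in TFA/H2O. Incubations had been ended by adding aqueous TFA (10%, v/v), and eluted peaks were identified by ESI-MS.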

[2] = Stability in human plasma; assay type: in vitro ADME; settings: for % degradation in 24 h when incubated with human plasma / half-life (t1/2) in human plasma: 2 μM, 37° C.; for half-life at 2 μM: human, pooled human plasma, pH 7.8, 37° C., read-out: half-life (t1/2) in human plasma
In short: as §1

[3] = Stability in simulated gastric fluid; assay type: in vitro ADME; settings: 37° C., pH 1.5, pepsin; for % degradation in 24 h when incubated with simulated gastric fluid / half-life (t1/2) in simulated gastric fluid: 2 μM; for half-life at 2 μM: simulated gastric fluid with pepsin, read-out: half-life (t1/2) in simulated gastric fluid
In short: as §1

[4] = Stability in simulated intestinal fluid; assay type: in vitro ADME; settings: 37° C.; for % degradation in 24 h when incubated with simulated intestinal fluid / half-life (t1/2) in simulated intestinal fluid: 2 μM, pH 7.5; for half-life at 2 μM: simulated intestinal fluid, pH 7.5, read-out: half-life (t1/2) in simulated intestinal fluid
In short: as §1

[5] = Stability against liver microsomes; assay type: in vitro ADME, human; settings: for % degradation in 24 h when incubated with liver microsomes: 2 μM, 37° C.; for half-life at 2 μM: human, human liver microsomes, pH 7.8, 37° C., read-out: half-life (t1/2) with liver microsomes
In short: as §1

[6] = 1 nM test compound (fourth concentration column, between 100 nM and 10 μM) with saturated concentration of glucagon peptide
[7] = 1 nM test compound with saturated concentration of glucagon peptide
[8] = 10 nM test compound with saturated concentration of glucagon peptide
[9] = 100 nM test compound with saturated concentration of glucagon peptide
[10] = 10 μM test compound with saturated concentration of glucagon peptide

| Compound | Insulin secretion ([1]; 0.1 nM test compd.) [pg/µg/h] | Insulin secretion ([1]; 1 nM test compd.) [pg/µg/h] | Insulin secretion ([1]; 10 nM test compd.) [pg/µg/h] | Human Glucagon receptor antagonistic activity, inhibition of cAMP production of Glucagon peptide (human glucagon receptor; [6]) [pmol/ml/μg prt] | Human Glucagon receptor antagonistic activity, inhibition of cAMP production of Glucagon peptide (human glucagon receptor; [7]) [pmol/ml/μg prt] | Human Glucagon receptor antagonistic activity, inhibition of cAMP production of Glucagon peptide (human glucagon receptor; [8]) [pmol/ml/μg prt] | Human Glucagon receptor antagonistic activity, inhibition of cAMP production of Glucagon peptide (human glucagon receptor; [9]) [pmol/ml/μg prt] | Human Glucagon receptor antagonistic activity, inhibition of cAMP production of Glucagon peptide (human glucagon receptor; [10]) [pmol/ml/μg prt] | % degradation in 24 h when incubated with DPP-IV enzyme (DPP IV) [%] | half-life at 2 μM (DPP IV) [min] | % degradation in 24 h when incubated with human plasma [2] [%] | half-life at 2 μM [2] [min] | % degradation in 24 h when incubated with simulated gastric fluid [3] [%] | half-life (t1/2) in simulated gastric fluid [3] | % degradation in 24 h when incubated with simulated intestinal fluid [4] [%] | % degradation in 24 h when incubated with liver microsomes [5] [%] | half-life at 2 μM [5] [min] | half-life (t1/2) in human plasma [2] | half-life at 2 μM [3] [min] | half-life at 2 μM [4] [min] | also measured |
| --- | --- | --- | --- | --- | --- | --- | --- | --- | --- | --- | --- | --- | --- | --- | --- | --- | --- | --- | --- | --- | --- |
| CCc1cc(OC)ccc1-c1ccc(CC(NC(=O)[C@H](CC(=O)O)NC(=O)[C@H](CO)NC(=O)[C@@H](NC(=O)C(C)(Cc2ccccc2F)NC(=O)[C@@H](NC(=O)CNC(=O)[C@H](CCC(N)=O)NC(=O)[C@H](C)NC(=O)[C@@H](N)Cc2c[nH]cn2)[C@@H](C)O)[C@@H](C)O)C(=O)NC(Cc2ccc(-c3ccccc3C)nc2)C(N)=O)cc1 (single isomer, unassigned) [compound 26] | 12.1 ± 0.51 | 14.1 ± 0.19 | 28.1 ± 0.29 | 4 ± 0.01 | 15 ± 0.11 | 12 ± 0.13 | 8 ± 0.09 | 2 ± 0.08 | 70 | 540 | 71 | 480 | 14 | (8) h | 40 | 78 | 60 |  |  |  | half-life (t1/2) in simulated intestinal fluid [4]: (6) h |
| CCc1cc(OC)ccc1-c1ccc(CC(NC(=O)[C@H](CC(=O)O)NC(=O)[C@H](CO)NC(=O)[C@@H](NC(=O)[C@H](Cc2ccccc2)NC(=O)[C@@H](NC(=O)CNC(=O)[C@H](CCC(N)=O)NC(=O)[C@H](C)NC(=O)[C@@H](N)Cc2c[nH]cn2)[C@@H](C)O)[C@@H](C)O)C(=O)NC(Cc2ccc(-c3ccccc3C)nc2)C(N)=O)cc1 (single isomer, unassigned) [compound 10] | 12.7 ± 0.21 | 15.8 ± 0.33 | 29.3 ± 0.19 | 4 ± 0.01 | 15 ± 0.11 | 12 ± 0.13 | 8 ± 0.09 | 2 ± 0.08 | 70 |  | 71 |  | 100 |  | 100 | 100 | 30 | (9) h | 30 | 30 |  |
| CCc1cc(OC)ccc1-c1ccc(CC(NC(=O)[C@H](CC(=O)O)NC(=O)[C@H](CO)NC(=O)[C@@H](NC(=O)C(C)(Cc2ccccc2F)NC(=O)[C@@H](NC(=O)CNC(=O)[C@H](CCC(N)=O)NC(=O)[C@H](CO)NC(=O)[C@@H](N)Cc2c[nH]cn2)[C@@H](C)O)[C@@H](C)O)C(=O)NC(Cc2ccc(-c3ccccc3C)cc2)C(N)=O)cc1 (single isomer, unassigned) [compound 21] | 12.3 ± 0.33 | 14.1 ± 0.36 | 28.0 ± 0.16 | 14 ± 0.02 | 19 ± 0.03 | 17 ± 0.08 | 15 ± 0.01 | 12 ± 0.11 | 76 | 540 | 78 | 480 | 12 | (8) h | 55 | 79 | 60 |  |  |  | half-life (t1/2) in simulated intestinal fluid [4]: (6) h |
| CCc1cc(OC)ccc1-c1ccc(CC(NC(=O)[C@H](CC(=O)O)NC(=O)[C@H](CO)NC(=O)[C@@H](NC(=O)[C@H](Cc2ccccc2)NC(=O)[C@@H](NC(=O)CNC(=O)[C@H](CCC(N)=O)NC(=O)[C@H](C)NC(=O)[C@@H](N)Cc2c[nH]cn2)[C@@H](C)O)[C@@H](C)O)C(=O)NC(Cc2ccc(-c3ccccc3C)cc2)C(N)=O)cc1 (single isomer, unassigned) [compound 9] | 11.8 ± 0.50 | 14.9 ± 0.11 | 27.9 ± 0.31 | 8 ± 0.02 | 18 ± 0.07 | 16 ± 0.01 | 12 ± 0.03 | 6 ± 0.08 | 74 |  | 75 |  | 100 |  | 100 | 100 | 30 | (9) h | 30 | 30 |  |
| CCc1cc(OC)ccc1-c1ccc(CC(NC(=O)[C@H](CC(=O)O)NC(=O)[C@H](CO)NC(=O)[C@@H](NC(=O)[C@H](Cc2ccccc2)NC(=O)[C@@H](NC(=O)CNC(=O)[C@H](CCC(N)=O)NC(=O)[C@H](CO)NC(=O)[C@@H](N)Cc2c[nH]cn2)[C@@H](C)O)[C@@H](C)O)C(=O)NC(Cc2ccc(-c3ccccc3F)cc2)C(N)=O)cc1 (single isomer, unassigned) [compound 7] | 11.1 ± 0.12 | 13.1 ± 0.13 | 19.0 ± 0.16 | 0 | 6 ± 0.02 | 5 ± 0.03 | 2 ± 0.61 | 0 | 77 |  | 80 |  | 100 |  | 100 | 100 | 30 | (9) h | 30 | 30 |  |
